Data taken from patent publication US9636311B2, “N,N′-di-1 naphthylguanidine HCl (NAGH) and N,N′-di-p-nitrophenylguanidine HCl (NAD) treatment for stroke at delayed timepoints” (University of South Florida, priority 2012, dated 2017).
Entries after “also recorded” stand apart in the source; their conditions may differ. Read-outs that look alike come from different tables or passages of the source.

Key:
rats following MCAO [1] = test: Brain infarction quantification (Nissl thionin) after MCAO; assay type: in vivo, rat; details: s.c. daily for 3 days from 24 h post-MCAO (NAGH 0.86, NAD 2.8, Bromo-DTG 8.2, Chloro-DTG 8.5 mg/kg/day); 30 days post MCAO
Description: All animal procedures were performed according to the University of South Florida guidelines for the care and use of animals and protocols were reviewed and approved by the Institutional Animal Care and Use Committee and adhered to the NIH guidelines for the care and use of animals. Adult male Sprague Dawley rats (Harlan) weighing about 250-300 g at the time of surgery were used for the study. All animals were housed two per cage in a temperature controlled room, under a 12 hour light-dark cycle, and given access to water and food ad libitum. Animals were monitored daily for wellness and biweekly for weight loss. For the NAGH studies, a total of 84 animals were randomly assigned to 2 groups: MCAO only (n=42) and rat treated with NAGH (n=42) beginning 24 hour after MCAO.
(§1) MCAO surgeries were performed as described elsewhere (Vendrame M, Cassady C J, Newcomb J, Butler T, Pennypacker K R, Zigova T, et al. Stroke. 2004; 35:2390-2395). Briefly, rats were anesthetized with isoflurane, and the right common carotid and external carotid arteries were exposed using blunt dissection techniques. The vagus nerve was separated from common carotid artery and the external carotid artery was ligated proximally, and transected near the bifurcation. An embolus 40 mm in length (4.0 siliconized monofilament) was inserted into the external carotid artery and fed distally into the origin of the middle cerebral artery (˜25 mm from insertion) through the internal carotid artery. Blood samples were taken and analyzed using an i-STAT handheld analyzer for hemoglobin, hematocrit, ionized calcium, glucose, sodium, potassium, pH, pCO2, HCO3, TCO2, base excess, pO2, and O2. Cerebral blood flow was recorded using a Laser Doppler Monitor (Moor Instruments) to verify occlusion. Afterwards, the embolus was ligated permanently into the vessel and the neck incision was closed. Animals were treated with Ketoprofen IM (10 mg/kg) for three days post-surgery.
(§2) For the NAGH studies, vehicle or NAGH were prepared fresh each day. Daily subcutaneous injections (s.c) were administered beginning about 24 hours after MCAO and continued daily to about 72 hours post-surgery (FIG. 1). Animals received a total of 3 injections. A total of 84 animals were randomly assigned into 2 groups: Rats treated with vehicle (40% DMSO in sterile saline, n=42), or rats treated with 0.86 mg/kg NAGH (n=42).
For the studies with other compounds based on the structure of DTG, twenty-four hours after MCAO, the rats began a sigma agonist treatment regimen. Vehicle or drug was prepared fresh each day. […]
Infarct size was determined by Nissl thionin staining. […]

[2] = tested on: permanent middle cerebral artery occlusion (MCAO); details: administered beginning 24 hours after permanent MCAO; cited from earlier work
microglial cells [3] = details: 24 hours after in vitro ischemia; cited from earlier work
microglial cells [4] = test: Inhibition of microglial migration evoked by ATP; assay type: cell-based
Description: (§3) FIG. 8 is a series of images confirming NAGH acts as a sigma receptor agonist. A) Concentration-response relationship for NAGH (closed circles) and DTG (open circles) inhibition of microglial migration evoked by 100 μM ATP. […] Points represent mean (±SEM) and for all points, n>9. B) Bar graph of the mean (±SEM) number of microglial cells migrating in response to 100 μM ATP when ATP was added alone (DMEM) or in the presence of 100 μM NAGH. Microglia were further exposed to no σ antagonist (Control), or the σ-1 antagonist, BD-1047 (10 μM, BD-1047), or the σ-2 antagonist, rimcazole (10 μM, Rimcazole). Asterisks denote significant difference between DMEM and NAGH within Control, BD-1047 and Rimcazole groups, respectively. Pound symbols indicate significant difference between Control, BD-1047 and Rimcazole within DMEM and NAGH groups, respectively. P<0.05 and n=24 for all groups.
as §3, with “8A illustrates the concentration-response” for “8 is a series of images confirming NAGH acts as a sigma receptor agonist. A) Concentration-response”, “FIG. 8B depicts a bar” for “B) Bar”

rats following MCAO [5] = test: Step test after MCAO; assay type: in vivo, rat; details: NAD 2.8 mg/kg s.c. x3; 30 days post-stroke; p<0.05
Description: (§4) For NAD testing, a total of 32 animals were randomly assigned into 2 groups: Vehicle (n=16), and rat treated with 2.8 mg/kg NAD (n=16). Vehicle consisted of 40% DMSO in sterile saline.
(§5) Rats were held tightly with one forelimb placed on a hard flat table top and then pulled for a length of 1 meter in the direction of the placed forelimb at constant velocity. The test was repeated with the opposite forelimb. This was repeated three times for each forelimb and the percent of contralateral forelimb paw was obtained. The bias was standardized as the absolute number of steps with the contralateral paw minus 100.

rats following MCAO [6] = test: Spontaneous activity (automated activity monitor) after MCAO; assay type: in vivo, rat; details: NAD 2.8 mg/kg s.c. x3; 30 days after MCAO; day and night
Description: as §1, §2, §4
Spontaneous Activity was measured during both the day (1 hr) and night (12 hrs) using an automated activity monitor (VersaMax, Accuscan Instruments, Inc). Spontaneous Activity was measured prior to stroke to establish the normal baseline for each individual animal as well as 1 month after the MCAO. The animals were placed in a Plexiglas box and allowed to roam freely. There is a three dimensional infrared array in this box and when a beam is broken, activity is recorded. A total of sixteen parameters were measured including: Vertical movement, Horizontal movement, and Stereotypic activity were selected for analysis: Horizontal activity (HA), Total distance travelled (TD), Number of movements (MVN), Movement time (MVT), Vertical activity (VA), Number of vertical movements (VMN), vertical time (VT), Stereotype counts (SC), Number of Stereotypy (SN), Stereotypy time (ST), Clockwise rotation (CR), counterclockwise rotation (CCR), Margin distance (MD), Marginal time (MT), Center distance (CD), and Center time (CT). The data are presented as mean+SEM of percent of baseline behavior.

rats following MCAO [7] = test: Grip strength test after MCAO; assay type: in vivo, rat; details: NAD 2.8 mg/kg s.c. x3; 30 days after MCAO; p=0.0007
Description: as §4
Motor deficits were assessed using a grip strength meter (Bioseb, # BIO-GS3). The animals were held so the front left paw could firmly grasp the bar of the strength meter, and then pulled straight backward until its front paw released its grasp. Grip strength was recorded in Newtons (N). This test was repeated 3 times.

rats following MCAO [8] = test: Battery of behavioral tests after MCAO (corner, grip, rotorod, step, cylinder); assay type: in vivo, rat; details: NAD 2.8 mg/kg s.c. x3; 30 days after MCAO
Description: After surgery, animals were tested was performed once before surgery and 30 days post-surgery for motor coordination and behavior. All behavioral data are reported as mean+sem.
Rotorod test, which measures motor coordination, was conducted using Omni-rotor Rotorod (Omnitech, Inc). Animals were trained on the accelerating rotorod apparatus for 3 consecutive days before times were collected. Animals were placed on the revolving rod and instrument was set to accelerate to a maximum speed of 40 rpm over 180 seconds. Latency to fall (in seconds) was recorded. This test was performed in triplicate once per day for 3 days.
as §5
The animals were placed in a transparent cylinder about 20 cm in diameter and 30 cm in height with an open top. The number times each paw was placed on the sides of the cylinder was counted a5 minute period. The test was videotaped and a mirror was placed behind the cylinder allowing the experimenter to see the placement of paws when the animal was facing away from the camera.
A 30 degree angle was formed using the edges of two plexiglass boards. The animals were placed halfway into the corner facing the corner and the total number of left and right turns was recorded. A total of 10 trials were conducted and videotaped. A non-lesioned animal turned randomly toward the left or right, while a lesioned animal preferentially turned toward the non-impaired (left) side. Results were reported as the percentage of ipsilateral (injury site, right side) versus contralateral turns.
Motor deficits were assessed using a grip strength meter (Bioseb, # BIO-GS3). […] Grip strength was recorded in Newtons (N). […]

stroke = details: Ruscher, Shamloo et al. 2011; cited from earlier work
[9] = migration evoked by 100 μM ATP, two-component Langmuir-Hill fit

Cl.N=C(Nc1ccc(Br)cc1)Nc1ccc(Br)cc1 [Bromo-DTG, N,N′-di-p-Bromophenylguanidine hydrochloride]
Infarct volume vs vehicle (rats following MCAO [1]): did not show significant effects over vehicle

Cl.N=C(Nc1cccc(Cl)c1)Nc1cccc(Cl)c1 [Chloro-DTG, N,N′-di-m-Chlorophenylguanidine hydrochloride]
Infarct volume vs vehicle (rats following MCAO [1]): did not show significant effects over vehicle

Cc1ccccc1NC(=N)Nc1ccccc1C [DTG, 1,3-di-o-tolylguanidine, reference compound]
Infarct size 96 hrs post-MCAO [2]: decreased infarct volume; also recorded: decreased infarct size | Long-term functional recovery [2]: failed to improve long-term functional recovery | Microglial cell death (microglial cells [3]): significantly reduced microglial cell death | Emax, high affinity component (microglial cells [4]; [9]): 0.38 | Emax, low affinity component (microglial cells [4]; [9]): 0.62 | Hill coefficient, high affinity component (microglial cells [4]; [9]): 0.59 | Hill coefficient, low affinity component (microglial cells [4]; [9]): 1.7 | IC50 (microglial cells [4]; migration evoked by 100 μM ATP, two-component Langmuir-Hill fit, read-out: IC50, high affinity component): 0.76 µM | IC50 (microglial cells [4]; read-out: IC50, low affinity component): 80 µM

Cl.N=C(Nc1ccc([N+](=O)[O-])cc1)Nc1ccc([N+](=O)[O-])cc1 [NAD, N,N′-di-p-Nitrophenylguanidine hydrochloride]
Step test, steps with impaired paw compared to unimpaired paw (rats following MCAO [5]): 100.3 ± 5.6% | Activity vs MCAO-only animals (rats following MCAO [6]): less activity than MCAO-only animals | Average grip strength vs non-treated rats (rats following MCAO [7]): significantly higher | Overall behavioral data vs vehicle, all tests except Grip Strength and Step test (rats following MCAO [8]): no significant difference | Infarct volume vs vehicle (rats following MCAO [1]): not significant

COc1ccc(CCN2CCN(CCCc3ccccc3)CC2)cc1OC [SA4503]
Infarct size (stroke): without decreasing infarct size | Sensorimotor function (stroke): improved sensorimotor function
